Assays:
[1] = target: T1, Serine/threonine-protein kinase Sgk1 (Homo sapiens, UniProt O00141); assay: Inhibition of recombinant human SGK1 expressed in baculovirus expression system using 5-carboxyfluorescein -RPRAATF-NH2 as substrate preincubated for 30 mins followed by substrate addition in presence of 10 uM ATP and measured after 60 mins by microfluidics assay
T1 sequence (O00141 whole entry): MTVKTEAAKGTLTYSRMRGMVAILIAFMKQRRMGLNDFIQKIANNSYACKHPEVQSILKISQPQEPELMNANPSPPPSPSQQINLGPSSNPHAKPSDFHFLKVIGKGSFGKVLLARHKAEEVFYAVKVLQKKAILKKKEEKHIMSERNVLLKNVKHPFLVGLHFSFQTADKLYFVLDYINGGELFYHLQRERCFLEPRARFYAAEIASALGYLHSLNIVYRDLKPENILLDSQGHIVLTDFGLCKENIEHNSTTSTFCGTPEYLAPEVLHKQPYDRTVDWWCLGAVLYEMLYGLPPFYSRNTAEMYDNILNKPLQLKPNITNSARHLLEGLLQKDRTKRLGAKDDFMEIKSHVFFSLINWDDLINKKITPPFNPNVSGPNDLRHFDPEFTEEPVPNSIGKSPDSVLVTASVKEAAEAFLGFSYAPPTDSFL

[2] = target: T1, Serine/threonine-protein kinase Sgk1; assay: Inhibition of recombinant human SGK1 expressed in baculovirus expression system using 5-carboxyfluorescein -RPRAATF-NH2 as substrate preincubated for 30 mins followed by substrate addition in presence of 500 uM ATP and measured after 60 mins by microfluidics assay
[3] = Photostability of compound; format: physicochemical

Row | IC50 [1] [nM] | IC50 [2] [nM] | Stability [3] [%] | SMILES
1 | < 1 | < 1 | – | CN1CC(NC(=O)c2cc(-c3ccc(NS(=O)(=O)c4cccc(Cl)c4Cl)cc3)nc3[nH]ncc23)C1
2 | 1 | 1 | – | Cc1n[nH]c2nc(-c3ccc(NS(=O)(=O)c4cc(Cl)ccc4F)cc3)nc(OC3CCCNC3)c12 (centres undefined)
3 | 4 | 813 | – | O=C(NCc1nn[nH]n1)c1cc(-c2ccc(NS(=O)(=O)c3cccc(Cl)c3Cl)cc2)nc2[nH]ncc12
4 | – | – | 97.4 | Nc1n[nH]c2nc(-c3ccc(NS(=O)(=O)c4c(F)cc(F)cc4F)cc3)ccc12
5 | – | – | 87.2 | Nc1n[nH]c2nc(-c3ccc(NS(=O)(=O)c4cccc(Cl)c4F)cc3)ccc12
6 | < 1 | < 1 | – | O=C(N[C@@H]1CCNC1)c1cc(-c2ccc(NS(=O)(=O)c3cccc(Cl)c3Cl)cc2)nc2[nH]ncc12
7 | 1 | 1 | – | Cc1n[nH]c2nc(-c3ccc(NS(=O)(=O)c4cc(Cl)ccc4F)cc3)nc(OC3CCNCC3(F)F)c12 (centres undefined)
8 | – | – | 91.7 | Nc1n[nH]c2nc(-c3ccc(NS(=O)(=O)c4cc(Cl)ccc4F)cc3)ccc12
9 | 6 | < 1920 | – | CCNC(=O)c1cc(-c2ccc(NS(=O)(=O)c3cccc(Cl)c3Cl)cc2)nc2[nH]ncc12
10 | < 1 | 109 | – | CCN1CCC(CNC(=O)c2cc(-c3ccc(NS(=O)(=O)c4cccc(Cl)c4Cl)cc3)nc3[nH]ncc23)C1 (racemic)
11 | 3 | 609 | – | O=C(NCCn1cnnc1)c1cc(-c2ccc(NS(=O)(=O)c3cccc(Cl)c3Cl)cc2)nc2[nH]ncc12
12 | < 1 | 128 | – | O=C(NCc1ncc[nH]1)c1cc(-c2ccc(NS(=O)(=O)c3cccc(Cl)c3Cl)cc2)nc2[nH]ncc12
13 | 1 | 2 | – | Cc1n[nH]c2nc(-c3ccc(NS(=O)(=O)c4cc(Cl)ccc4F)cc3)nc(OCC(CO)CO)c12
14 | 2 | 4 | – | CCN1CCC(Oc2nc(-c3ccc(NS(=O)(=O)c4cc(Cl)ccc4F)cc3)nc3[nH]nc(C)c23)CC1
15 | 1 | 1 | – | Cc1n[nH]c2nc(-c3ccc(NS(=O)(=O)c4cc(Cl)ccc4F)cc3)nc(OC3CCNCC3)c12
16 | 1 | 12 | – | O=C(NC1CCN(CCO)C1)c1cc(-c2ccc(NS(=O)(=O)c3cccc(Cl)c3Cl)cc2)nc2[nH]ncc12 (racemic)
17 | 23 | 183 | – | CCOc1nc(-c2ccc(NS(=O)(=O)c3cc(Cl)ccc3F)cc2)nc2[nH]nc(C)c12
18 | 1 | 1 | – | Cc1n[nH]c2nc(-c3ccc(NS(=O)(=O)c4cc(Cl)ccc4F)cc3)nc(OCC3(CN)COC3)c12
19 | – | – | 98.6 | Nc1n[nH]c2nc(-c3ccc(NS(=O)(=O)c4cc(Cl)c(F)cc4F)cc3)ncc12

Row | IC50 [1] [nM] | IC50 [2] [nM] | Stability [3] [%] | SMILES
20 | 14 | 45 | – | CN1CCC(CNC(=O)c2cc(-c3ccc(NS(=O)(=O)c4cccc(Cl)c4Cl)cc3)nc3[nH]ncc23)C1 (racemic)
21 | < 1 | < 1 | – | NCCNC(=O)c1cc(-c2ccc(NS(=O)(=O)c3cccc(Cl)c3Cl)cc2)nc2[nH]ncc12
22 | 5 | 18 | – | Cc1n[nH]c2nc(-c3ccc(NS(=O)(=O)c4cc(Cl)ccc4F)cc3)nc(OC3CCC(=O)CC3)c12
23 | 4 | 11 | – | Cc1n[nH]c2nc(-c3ccc(NS(=O)(=O)c4cc(Cl)ccc4F)cc3)nc(Oc3ccc(N)nc3)c12
24 | 3 | 4 | – | Cc1n[nH]c2nc(-c3ccc(NS(=O)(=O)c4cc(Cl)ccc4F)cc3)nc(OC3CC(C)(C)NC(C)(C)C3)c12
25 | 1 | 1 | – | Cc1n[nH]c2nc(-c3ccc(NS(=O)(=O)c4cc(Cl)ccc4F)cc3)nc(OCC3CN(C(C)C)C3)c12
26 | 55 | 265 | – | Cc1n[nH]c2nc(-c3ccc(NS(=O)(=O)c4cc(Cl)ccc4F)cc3)nc(OC3CCN(CC(F)(F)F)CC3)c12
27 | 10 | 246 | – | O=C(NCCc1cc[nH]n1)c1cc(-c2ccc(NS(=O)(=O)c3cccc(Cl)c3Cl)cc2)nc2[nH]ncc12
28 | < 1 | 327 | – | O=C(NCc1cocn1)c1cc(-c2ccc(NS(=O)(=O)c3cccc(Cl)c3Cl)cc2)nc2[nH]ncc12
29 | – | – | 10.1 | Nc1n[nH]c2nc(-c3ccc(NS(=O)(=O)c4cccc(Cl)c4Cl)cc3)ccc12
30 | 5 | 14 | – | Cc1n[nH]c2nc(-c3ccc(NS(=O)(=O)c4cc(Cl)ccc4F)cc3)nc(OC3CCOCC3)c12
31 | 19 | 2470 | – | Nc1nc(CNC(=O)c2cc(-c3ccc(NS(=O)(=O)c4cccc(Cl)c4Cl)cc3)nc3[nH]ncc23)cs1
32 | 4 | 38 | – | CC(C)N1CC[C@H](NC(=O)c2cc(-c3ccc(NS(=O)(=O)c4cccc(Cl)c4Cl)cc3)nc3[nH]ncc23)C1
33 | 4 | 929 | – | CNC(=O)c1cc(-c2ccc(NS(=O)(=O)c3cccc(Cl)c3Cl)cc2)nc2[nH]ncc12
34 | < 1 | 21 | – | CN1CCC(NC(=O)c2cc(-c3ccc(NS(=O)(=O)c4cccc(Cl)c4Cl)cc3)nc3[nH]ncc23)C1 (racemic)
35 | < 2 | < 2 | – | Cc1n[nH]c2nc(-c3ccc(NS(=O)(=O)c4cc(Cl)ccc4F)cc3)nc(OCCCN)c12
36 | 15 | 438 | – | Cc1n[nH]c2nc(-c3ccc(NS(=O)(=O)c4cc(Cl)ccc4F)cc3)nc(OCCC(=O)N(C)C)c12
37 | 1 | 1 | – | Cc1n[nH]c2nc(-c3ccc(NS(=O)(=O)c4cc(Cl)ccc4F)cc3)nc(OC3CCNCC3F)c12 (centres undefined)
38 | 6 | 610 | – | O=C(NC1CCN(C2CC2)C1)c1cc(-c2ccc(NS(=O)(=O)c3cccc(Cl)c3Cl)cc2)nc2[nH]ncc12 (racemic)

Row | IC50 [1] [nM] | IC50 [2] [nM] | Stability [3] [%] | SMILES
39 | 2 | 3 | – | Cc1n[nH]c2nc(-c3ccc(NS(=O)(=O)c4cc(Cl)ccc4F)cc3)nc(OC3CC(C)(C)N(C)C(C)(C)C3)c12
40 | 68 | 17600 | – | CC(C)NC(=O)c1cc(-c2ccc(NS(=O)(=O)c3cccc(Cl)c3Cl)cc2)nc2[nH]ncc12
41 | – | 633 | – | CN(C)CCCNC(=O)c1cc(-c2ccc(NS(=O)(=O)c3cccc(Cl)c3Cl)cc2)nc2[nH]ncc12
42 | 1 | 35 | – | O=C(NC1CCN(CC2CC2)C1)c1cc(-c2ccc(NS(=O)(=O)c3cccc(Cl)c3Cl)cc2)nc2[nH]ncc12 (racemic)
43 | 109 | 1270 | – | O=C(NCc1nncs1)c1cc(-c2ccc(NS(=O)(=O)c3cccc(Cl)c3Cl)cc2)nc2[nH]ncc12
44 | 1 | 107 | – | O=C(NCc1ncn[nH]1)c1cc(-c2ccc(NS(=O)(=O)c3cccc(Cl)c3Cl)cc2)nc2[nH]ncc12
45 | 1 | 236 | – | NC(=O)c1cc(-c2ccc(NS(=O)(=O)c3cccc(Cl)c3Cl)cc2)nc2[nH]ncc12
46 | 2 | 10 | – | Cc1n[nH]c2nc(-c3ccc(NS(=O)(=O)c4cc(Cl)ccc4F)cc3)nc(OCCCO)c12
47 | 2 | 2 | – | Cc1n[nH]c2nc(-c3ccc(NS(=O)(=O)c4cc(Cl)ccc4F)cc3)nc(OCC3CNCCO3)c12 (centres undefined)
48 | 6 | – | – | CCN1CCCC(Oc2nc(-c3ccc(NS(=O)(=O)c4cc(Cl)ccc4F)cc3)nc3[nH]nc(C)c23)C1 (centres undefined)
49 | – | 963 | – | O=C(NCc1cc[nH]n1)c1cc(-c2ccc(NS(=O)(=O)c3cccc(Cl)c3Cl)cc2)nc2[nH]ncc12
50 | 3 | 5 | – | Cc1n[nH]c2nc(-c3ccc(NS(=O)(=O)c4cc(Cl)ccc4F)cc3)nc(OCC(F)(F)CN)c12
51 | < 2 | < 2 | – | Cc1n[nH]c2nc(-c3ccc(NS(=O)(=O)c4cc(Cl)ccc4F)cc3)nc(OC3CCC(O)CC3)c12 (centres undefined)
52 | – | – | 99.3 | Nc1n[nH]c2nc(-c3ccc(NS(=O)(=O)c4cc(Cl)ccc4F)cc3)ncc12
53 | 3 | 5 | – | COCCN1CCC(Oc2nc(-c3ccc(NS(=O)(=O)c4cc(Cl)ccc4F)cc3)nc3[nH]nc(C)c23)CC1
54 | < 1 | 24 | – | CN(CCO)C(=O)c1cc(-c2ccc(NS(=O)(=O)c3cccc(Cl)c3Cl)cc2)nc2[nH]ncc12
55 | 2 | 1280 | – | O=C(c1cc(-c2ccc(NS(=O)(=O)c3cccc(Cl)c3Cl)cc2)nc2[nH]ncc12)N1CCNCC1
56 | – | – | 46.1 | Nc1n[nH]c2nc(-c3ccc(NS(=O)(=O)c4ccccc4Cl)cc3)ccc12
57 | 2 | 4 | – | Cc1n[nH]c2nc(-c3ccc(NS(=O)(=O)c4cc(Cl)ccc4F)cc3)nc(Oc3ccc(O)nc3)c12
